From US12281118B2, “Nitrogen-containing fused heterocyclic SHP2 inhibitor compound, preparation method, and use” (SHANGHAI RINGENE BIOPHARMA CO., LTD., priority 2018, dated 2025)

Key:
[1] = test system: H358 (lung cancer cells); experiment: Cell proliferation inhibition, MTT; type: cell-based; settings: Homo sapiens, NCI-H358
Description: (§1) Incubating cells such as KYSE520 (oesophageal cancer cells), H358 (lung cancer cells), Colo-205 (colorectal cancer cells), MiaPaca-2 (pancreas cancer cells), MOLM 13 (leukemia cells), NCI—H 1666 (lung cancer cells), NCI—H 508 (lung cancer), KATO III (gastric cancer), HEK 293A (normal cells), H3255 (lung cancer), H1975 (lung cancer), PC-9 (lung cancer), A549 (lung cancer), SNU16 (gastric cancer), and H1299 (lung cancer) in a 96-well plate at 100 µl/well and 20,000 cells/mL, and supplementing 10% fetal bovine serum and 1% penicillin/streptomycin sulfate. With 0.5% dimethyl sulfoxide as a blank control, treating the cells in a solution of the test compounds under 3× dilution at an initial concentration of 10 μM in eight gradients, and incubating the plate in an incubator with 5% CO2 for a certain period of time. At the end of the incubation, adding 10 μL of an MTT stock solution (5 mg/mL) to each well. Incubating the plates at 37° C. for 4 hours, and then removing the culture medium. Adding the dimethyl sulfoxide (100 μL) to each well, and then shaking well. Measuring the absorbance of a formazan product at 570 nm on a Thermo Scientific Varioskan Flash multi-mode reader. Fitting dose-response data to a three-parameter nonlinear regression model using GraphPad Prism 6.0 software to obtain IC50 values.

[2] = test system: KATO III (gastric cancer); experiment: Cell proliferation inhibition, MTT; type: cell-based; settings: Homo sapiens
Description: as §1

[3] = test system: KYSE520 (oesophageal cancer cells); experiment: Cell proliferation inhibition, MTT; type: cell-based; settings: Homo sapiens, KYSE-520
Description: as §1

[4] = test system: MOLM 13 (leukemia cells); experiment: Cell proliferation inhibition, MTT; type: cell-based; settings: Homo sapiens
Description: as §1

[5] = test system: NCI-H 508 (lung cancer); experiment: Cell proliferation inhibition, MTT; type: cell-based; settings: Homo sapiens, NCI-H508
Description: as §1

[6] = test system: NCI-H1666 (lung cancer cells); experiment: Cell proliferation inhibition, MTT; type: cell-based; settings: Homo sapiens
Description: as §1

[7] = test system: SNU16 (gastric cancer); experiment: Cell proliferation inhibition, MTT; type: cell-based; settings: Homo sapiens; SNU 16
Description: as §1

[8] = molecular target: PTP1B (Homo sapiens (Human), UniProt P18031); experiment: Inhibitory activity against different phosphatases; type: biochemical; settings: read-out: IC50 against phosphatase PTP1B
Chain of PTP1B (P18031 whole entry, species assumed): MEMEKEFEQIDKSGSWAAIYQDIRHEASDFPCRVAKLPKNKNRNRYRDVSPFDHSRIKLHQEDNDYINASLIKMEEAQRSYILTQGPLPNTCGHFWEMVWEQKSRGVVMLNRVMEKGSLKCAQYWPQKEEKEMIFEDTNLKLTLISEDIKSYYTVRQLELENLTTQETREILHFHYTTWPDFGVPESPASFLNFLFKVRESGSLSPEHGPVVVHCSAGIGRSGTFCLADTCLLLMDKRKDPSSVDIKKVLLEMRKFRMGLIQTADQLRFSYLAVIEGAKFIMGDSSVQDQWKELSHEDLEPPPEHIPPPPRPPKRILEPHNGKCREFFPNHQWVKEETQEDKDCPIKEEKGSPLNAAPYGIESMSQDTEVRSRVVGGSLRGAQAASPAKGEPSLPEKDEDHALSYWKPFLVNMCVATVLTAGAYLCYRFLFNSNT
Description: (§2) Allowing compound solutions (10 μM, 3× dilution at eight gradients) of examples reacted with phosphatases such as SHP1, LMW-PTP, LYP, MKP3, PTP1B, PTPN2, PTPN6, VHR, CDC25A, PTPRR, etc. according to a similar method shown in Test Example 1 to test the inhibitory activity of the compounds on the phosphatases described above.

[9] = molecular target: SHP1 (Homo sapiens (Human), UniProt P29350); experiment: Inhibitory activity against different phosphatases; type: biochemical; settings: read-out: IC50 against phosphatase SHP1
Chain of SHP1 (P29350 whole entry): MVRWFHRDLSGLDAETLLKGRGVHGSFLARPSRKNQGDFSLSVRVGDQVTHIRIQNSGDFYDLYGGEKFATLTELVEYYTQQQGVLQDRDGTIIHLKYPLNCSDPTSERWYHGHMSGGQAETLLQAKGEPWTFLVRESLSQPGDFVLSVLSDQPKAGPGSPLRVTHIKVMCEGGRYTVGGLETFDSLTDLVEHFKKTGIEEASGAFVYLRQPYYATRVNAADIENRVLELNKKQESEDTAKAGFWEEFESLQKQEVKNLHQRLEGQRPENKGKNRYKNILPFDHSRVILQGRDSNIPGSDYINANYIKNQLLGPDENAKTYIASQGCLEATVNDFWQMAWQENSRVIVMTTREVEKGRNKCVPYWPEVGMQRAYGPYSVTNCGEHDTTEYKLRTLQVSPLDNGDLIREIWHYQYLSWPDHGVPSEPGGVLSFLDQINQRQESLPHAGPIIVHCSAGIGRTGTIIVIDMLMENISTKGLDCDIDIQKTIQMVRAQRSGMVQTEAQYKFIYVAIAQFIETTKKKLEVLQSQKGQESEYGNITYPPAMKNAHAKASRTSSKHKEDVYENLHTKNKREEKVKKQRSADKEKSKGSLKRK
Description: as §2

[10] = test system: MC38 colorectal cancer xenografts; experiment: Growth inhibition of MC38 colorectal cancer xenografts in C57BL-6 mice; type: in vivo; settings: 1 mg/kg, orally, once daily
Text: Experimental method: 1) Culturing MC38 cells in a culture medium containing 10% fetal bovine serum. […] 2) Subcutaneously inoculating […] tumor cells at the right back of a mouse, and resuspending the cells in PBS and matrigel (1:1); observing tumor growth regularly, and randomizing mice for administration based on tumor size and mouse body weight when tumors grow to a mean volume of ˜50 mm^3-60 mm^3. 3) Defining the day of tumor cell inoculation as Day 0. Prior to the start of dosing, weighing all animals and measuring the tumor volume with a vernier caliper. 3) Administering orally compound of examples (prepared with water for injection containing 1% Tween80 to a desired concentration for use) at a given dose, intraperitoneally injecting an anti-PD-L1 antibody twice a week, for two consecutive weeks, and giving an equal amount of solvent animals in a solvent control group. Measuring diameters of the xenograft twice a week throughout the experiment, and weighing the mice were at the same time.
The calculation formula of tumor volume (TV) is: TV=½×a×b^2, wherein a and b represent length and width, respectively. The relative tumor volume (RTV) is calculated based on the measured results using the formula: RTV=Vt/V0, wherein V0 is the tumor volume measured at the time of dosing in separate cages (i.e., Day 0) and Vt is the tumor volume at each measurement. […]

Row | Compound | IC50 [1] | IC50 [2] | IC50 [3] | IC50 [4] | IC50 [5] | IC50 [6] | IC50 [7] | IC50 [8] | IC50 [9] | T/C [10]
1 | Nc1nccc(Sc2c(N)nc(N3CCC4(CC3)Cc3ccccc3[C@H]4N)n3ccnc23)c1Cl [Example 4, (S)-1′-(7-amino-8-((2-amino-3-chloropyridin-4-yl)thio)imidazo [1,2-c]pyrimidin-5-yl)-1,3-dihydrospiro [indene-2,4′-piperidine]-1-amine] | < 100 nM | < 1000 nM | < 100 nM | < 100 nM | < 100 nM | < 100 nM | < 1000 nM | > 500 nM | > 500 nM | –
2 | Cc1nc(N2CCC3(CC2)Cc2ccccc2[C@H]3N)n2ccnc2c1Sc1ccnc(N)c1Cl [Example 1, (S)-1′-(8-((2-amino-3-chloropyridin-4-yl)thio)-7-methylimidazo [1,2-c]pyrimidin-5-yl)-1,3-dihydrospiro [indene-2,4′-piperidine]-1-amine] | < 100 nM | < 1000 nM | < 100 nM | < 100 nM | < 100 nM | < 100 nM | < 1000 nM | > 500 nM | > 500 nM | 60%
